Measured values from BigSolDB 2.1.

COc1cc(Cl)nc(N)n1
Conditions	solubility (mole fraction)
in 1,4-dioxane, 283.15 K	0.0229
in 1,4-dioxane, 288.15 K	0.0264
in 1,4-dioxane, 293.15 K	0.0316
in 1,4-dioxane, 298.15 K	0.0367
in 1,4-dioxane, 303.15 K	0.0422
in 1,4-dioxane, 308.15 K	0.0493
in 1,4-dioxane, 313.15 K	0.0569
in 1,4-dioxane, 318.15 K	0.0648
in 1,4-dioxane, 323.15 K	0.0746
in DMF, 273.15 K	0.0496
in DMF, 278.15 K	0.0544
in DMF, 283.15 K	0.0595
in DMF, 288.15 K	0.0648
in DMF, 293.15 K	0.0712
in DMF, 298.15 K	0.0775
in DMF, 303.15 K	0.0846
in DMF, 308.15 K	0.0926
in DMF, 313.15 K	0.101
in DMF, 318.15 K	0.11
in DMF, 323.15 K	0.12
in acetone, 273.15 K	0.0076
in acetone, 278.15 K	0.00947
in acetone, 283.15 K	0.0117
in acetone, 288.15 K	0.0143
in acetone, 293.15 K	0.0174
in acetone, 298.15 K	0.0211
in acetone, 303.15 K	0.0255
in acetone, 308.15 K	0.0302
in acetone, 313.15 K	0.0358
in acetone, 318.15 K	0.0422
in acetone, 323.15 K	0.0492
in acetonitrile, 273.15 K	0.00136
in acetonitrile, 278.15 K	0.00174
in acetonitrile, 283.15 K	0.00223
in acetonitrile, 288.15 K	0.00276
in acetonitrile, 293.15 K	0.00345
in acetonitrile, 298.15 K	0.00426
in acetonitrile, 303.15 K	0.00523
in acetonitrile, 308.15 K	0.00633
in acetonitrile, 313.15 K	0.00773
in acetonitrile, 318.15 K	0.00927
in acetonitrile, 323.15 K	0.0111
in chloroform, 273.15 K	0.00237
in chloroform, 278.15 K	0.00306
in chloroform, 283.15 K	0.00389
in chloroform, 288.15 K	0.00492
in chloroform, 293.15 K	0.00612
in chloroform, 298.15 K	0.00758
in chloroform, 303.15 K	0.00924
in chloroform, 308.15 K	0.0114
in chloroform, 313.15 K	0.0138
in chloroform, 318.15 K	0.0166
in chloroform, 323.15 K	0.0197
in ethanol, 273.15 K	0.00128
in ethanol, 278.15 K	0.00163
in ethanol, 283.15 K	0.00206
in ethanol, 288.15 K	0.00259
in ethanol, 293.15 K	0.00323
in ethanol, 298.15 K	0.00396
in ethanol, 303.15 K	0.00488
in ethanol, 308.15 K	0.00598
in ethanol, 313.15 K	0.00733
in ethanol, 318.15 K	0.00886
in ethanol, 323.15 K	0.0106
in ethyl acetate, 273.15 K	0.00547
in ethyl acetate, 278.15 K	0.00687
in ethyl acetate, 283.15 K	0.00856
in ethyl acetate, 288.15 K	0.0105
in ethyl acetate, 293.15 K	0.0129
in ethyl acetate, 298.15 K	0.0155
in ethyl acetate, 303.15 K	0.0188
in ethyl acetate, 308.15 K	0.023
in ethyl acetate, 313.15 K	0.0276
in ethyl acetate, 318.15 K	0.033
in ethyl acetate, 323.15 K	0.0389
in ethylbenzene, 273.15 K	0.000515
in ethylbenzene, 278.15 K	0.000689
in ethylbenzene, 283.15 K	0.000887
in ethylbenzene, 288.15 K	0.00115
in ethylbenzene, 293.15 K	0.0015
in ethylbenzene, 298.15 K	0.00184
in ethylbenzene, 303.15 K	0.00238
in ethylbenzene, 308.15 K	0.00299
in ethylbenzene, 313.15 K	0.00367
in ethylbenzene, 318.15 K	0.00462
in ethylbenzene, 323.15 K	0.00567
in isopropanol, 273.15 K	0.00113
in isopropanol, 278.15 K	0.00149
in isopropanol, 283.15 K	0.0019
in isopropanol, 288.15 K	0.00241
in isopropanol, 293.15 K	0.00302
in isopropanol, 298.15 K	0.00377
in isopropanol, 303.15 K	0.0046
in isopropanol, 308.15 K	0.00574
in isopropanol, 313.15 K	0.00701
in isopropanol, 318.15 K	0.00857
in isopropanol, 323.15 K	0.0105
in methanol, 273.15 K	0.00126
in methanol, 278.15 K	0.00159
in methanol, 283.15 K	0.00199
in methanol, 288.15 K	0.00246
in methanol, 293.15 K	0.0031
in methanol, 298.15 K	0.00375
in methanol, 303.15 K	0.00463
in methanol, 308.15 K	0.00555
in methanol, 313.15 K	0.00675
in methanol, 318.15 K	0.00809
in methanol, 323.15 K	0.00962
in n-propanol, 273.15 K	0.00122
in n-propanol, 278.15 K	0.00158
in n-propanol, 283.15 K	0.00201
in n-propanol, 288.15 K	0.00256
in n-propanol, 293.15 K	0.00323
in n-propanol, 298.15 K	0.00407
in n-propanol, 303.15 K	0.00502
in n-propanol, 308.15 K	0.00618
in n-propanol, 313.15 K	0.0075
in n-propanol, 318.15 K	0.00916
in n-propanol, 323.15 K	0.0113
in toluene, 273.15 K	0.000694
in toluene, 278.15 K	0.000889
in toluene, 283.15 K	0.00115
in toluene, 288.15 K	0.00148
in toluene, 293.15 K	0.0019
in toluene, 298.15 K	0.00241
in toluene, 303.15 K	0.003
in toluene, 308.15 K	0.00374
in toluene, 313.15 K	0.00463
in toluene, 318.15 K	0.00573
in toluene, 323.15 K	0.00703
